Reference: patent US20070049564A1 (Wyeth, priority 2005, published 2007)
≈ marks a conversion by molar mass, not a printed value. Where two headings read alike, the source gives them in different places.

Experiments:
E. coli GC 2235 = assay: MIC, broth microdilution; conditions: Escherichia coli
E. coli GC 2272 = assay: MIC, broth microdilution; conditions: Escherichia coli
E. coli GC 4559 = assay: MIC, broth microdilution; conditions: Escherichia coli
E. coli GC 4560 = assay: MIC, broth microdilution; conditions: Escherichia coli
E. coli GC 6465 = assay: MIC, broth microdilution; conditions: Escherichia coli
E. coli GC 1073 = assay: MIC, broth microdilution; conditions: Escherichia coli
S. typhimurium GC 2172 = assay: MIC, broth microdilution; conditions: Salmonella enterica, TYPHIMURIUM
S. aureus GC 1131 = assay: MIC, broth microdilution; conditions: Staphylococcus aureus
S. aureus GC 6467 = assay: MIC, broth microdilution; conditions: Staphylococcus aureus
S. aureus GC 1079 = assay: MIC, broth microdilution; conditions: Staphylococcus aureus
S. aureus GC 4536 = assay: MIC, broth microdilution; conditions: Staphylococcus aureus
S. epidermidis GC 4935 = assay: MIC, broth microdilution; conditions: Staphylococcus epidermidis
E. faecalis GC 4555 = assay: MIC, broth microdilution; conditions: Enterococcus faecalis
E. faecalis GC 2267 = assay: MIC, broth microdilution; conditions: Enterococcus faecalis
E. faecalis GC 2242 = assay: MIC, broth microdilution; conditions: Enterococcus faecalis
S. pneumoniae* GC 4465 = assay: MIC, broth microdilution; conditions: Streptococcus pneumoniae
S. pneumoniae+ GC 4465 = assay: MIC, broth microdilution; conditions: Streptococcus pneumoniae
S. agalactiae GC 4564 = assay: MIC, broth microdilution; conditions: Streptococcus agalactiae
c. albicans GC 3066 = assay: MIC, broth microdilution
Staph. aureus Smith = assay: In vivo activity (oral, iv; ED50) against Staph. aureus Smith in mice
[1] = read-out: MINIMAL INHIBITORY CONCENTRATION MIC, pre-incubated in Human Serum
[2] = read-out: MINIMAL INHIBITORY CONCENTRATION MIC, pre-incubated in Mouse Serum
[3] = read-out: MINIMAL INHIBITORY CONCENTRATION MIC, pre-incubated in Water

MIC (E. coli GC 2235; GC2235, read-out: MINIMAL INHIBITORY CONCENTRATION MIC, pre-incubated in Human Serum): 4 µg/mL (≈ 5.29 µM) | MIC (E. coli GC 2235; GC2235, read-out: MINIMAL INHIBITORY CONCENTRATION MIC, pre-incubated in Mouse Serum): 0.5 µg/mL (≈ 0.662 µM) | MIC (E. coli GC 2235; GC2235, read-out: MINIMAL INHIBITORY CONCENTRATION MIC, pre-incubated in Water): 64 µg/mL (≈ 84.7 µM) | MIC (E. coli GC 2272; GC2272, read-out: MINIMAL INHIBITORY CONCENTRATION MIC, pre-incubated in Human Serum): 4 µg/mL (≈ 5.29 µM) | MIC (E. coli GC 2272; GC2272, read-out: MINIMAL INHIBITORY CONCENTRATION MIC, pre-incubated in Mouse Serum): 1 µg/mL (≈ 1.32 µM) | MIC (E. coli GC 2272; GC2272, read-out: MINIMAL INHIBITORY CONCENTRATION MIC, pre-incubated in Water): 64 µg/mL (≈ 84.7 µM) | MIC (E. coli GC 4559; GC4559, read-out: MINIMAL INHIBITORY CONCENTRATION MIC, pre-incubated in Human Serum): 8 µg/mL (≈ 10.6 µM) | MIC (E. coli GC 4559; GC4559, read-out: MINIMAL INHIBITORY CONCENTRATION MIC, pre-incubated in Mouse Serum): 1 µg/mL (≈ 1.32 µM) | MIC (E. coli GC 4559; GC4559, read-out: MINIMAL INHIBITORY CONCENTRATION MIC, pre-incubated in Water): > 64 µg/mL | MIC (E. coli GC 4560; GC4560, read-out: MINIMAL INHIBITORY CONCENTRATION MIC, pre-incubated in Human Serum): 1 µg/mL (≈ 1.32 µM) | MIC (E. coli GC 4560; GC4560, read-out: MINIMAL INHIBITORY CONCENTRATION MIC, pre-incubated in Mouse Serum): 0.5 µg/mL (≈ 0.662 µM) | MIC (E. coli GC 4560; GC4560, read-out: MINIMAL INHIBITORY CONCENTRATION MIC, pre-incubated in Water): 4 µg/mL (≈ 5.29 µM) | MIC (E. coli GC 6465; GC6465, read-out: MINIMAL INHIBITORY CONCENTRATION MIC, pre-incubated in Human Serum): 16 µg/mL (≈ 21.2 µM) | MIC (E. coli GC 6465; GC6465, read-out: MINIMAL INHIBITORY CONCENTRATION MIC, pre-incubated in Mouse Serum): 2 µg/mL (≈ 2.65 µM) | MIC (E. coli GC 6465; GC6465, read-out: MINIMAL INHIBITORY CONCENTRATION MIC, pre-incubated in Water): > 64 µg/mL | MIC (E. coli GC 1073; GC1073, read-out: MINIMAL INHIBITORY CONCENTRATION MIC, pre-incubated in Human Serum): 8 µg/mL (≈ 10.6 µM) | MIC (E. coli GC 1073; GC1073, read-out: MINIMAL INHIBITORY CONCENTRATION MIC, pre-incubated in Mouse Serum): 1 µg/mL (≈ 1.32 µM) | MIC (E. coli GC 1073; GC1073, read-out: MINIMAL INHIBITORY CONCENTRATION MIC, pre-incubated in Water): > 64 µg/mL | MIC (S. typhimurium GC 2172; [1]): 32 µg/mL (≈ 42.3 µM) | MIC (S. typhimurium GC 2172; [2]): 2 µg/mL (≈ 2.65 µM) | MIC (S. typhimurium GC 2172; [3]): > 64 µg/mL | MIC (S. aureus GC 1131; GC1131, read-out: MINIMAL INHIBITORY CONCENTRATION MIC, pre-incubated in Human Serum): 0.5 µg/mL (≈ 0.662 µM) | MIC (S. aureus GC 1131; GC1131, read-out: MINIMAL INHIBITORY CONCENTRATION MIC, pre-incubated in Mouse Serum): 0.5 µg/mL (≈ 0.662 µM) | MIC (S. aureus GC 1131; GC1131, read-out: MINIMAL INHIBITORY CONCENTRATION MIC, pre-incubated in Water): 0.5 µg/mL (≈ 0.662 µM) | MIC (S. aureus GC 6467; GC6467, read-out: MINIMAL INHIBITORY CONCENTRATION MIC, pre-incubated in Human Serum): 0.5 µg/mL (≈ 0.662 µM) | MIC (S. aureus GC 6467; GC6467, read-out: MINIMAL INHIBITORY CONCENTRATION MIC, pre-incubated in Mouse Serum): 1 µg/mL (≈ 1.32 µM) | MIC (S. aureus GC 6467; GC6467, read-out: MINIMAL INHIBITORY CONCENTRATION MIC, pre-incubated in Water): 1 µg/mL (≈ 1.32 µM) | MIC (S. aureus GC 1079; GC1079, read-out: MINIMAL INHIBITORY CONCENTRATION MIC, pre-incubated in Human Serum): 0.5 µg/mL (≈ 0.662 µM) | MIC (S. aureus GC 1079; GC1079, read-out: MINIMAL INHIBITORY CONCENTRATION MIC, pre-incubated in Mouse Serum): 0.5 µg/mL (≈ 0.662 µM) | MIC (S. aureus GC 1079; GC1079, read-out: MINIMAL INHIBITORY CONCENTRATION MIC, pre-incubated in Water): 0.5 µg/mL (≈ 0.662 µM) | MIC (S. aureus GC 4536; GC4536, read-out: MINIMAL INHIBITORY CONCENTRATION MIC, pre-incubated in Human Serum): 0.5 µg/mL (≈ 0.662 µM) | MIC (S. aureus GC 4536; GC4536, read-out: MINIMAL INHIBITORY CONCENTRATION MIC, pre-incubated in Mouse Serum): 0.5 µg/mL (≈ 0.662 µM) | MIC (S. aureus GC 4536; GC4536, read-out: MINIMAL INHIBITORY CONCENTRATION MIC, pre-incubated in Water): 0.5 µg/mL (≈ 0.662 µM) | MIC (S. epidermidis GC 4935; GC4935, read-out: MINIMAL INHIBITORY CONCENTRATION MIC, pre-incubated in Human Serum): 1 µg/mL (≈ 1.32 µM) | MIC (S. epidermidis GC 4935; GC4935, read-out: MINIMAL INHIBITORY CONCENTRATION MIC, pre-incubated in Mouse Serum): 1 µg/mL (≈ 1.32 µM) | MIC (S. epidermidis GC 4935; GC4935, read-out: MINIMAL INHIBITORY CONCENTRATION MIC, pre-incubated in Water): 2 µg/mL (≈ 2.65 µM) | MIC (E. faecalis GC 4555; GC4555, read-out: MINIMAL INHIBITORY CONCENTRATION MIC, pre-incubated in Human Serum): 0.5 µg/mL (≈ 0.662 µM) | MIC (E. faecalis GC 4555; GC4555, read-out: MINIMAL INHIBITORY CONCENTRATION MIC, pre-incubated in Mouse Serum): 0.5 µg/mL (≈ 0.662 µM) | MIC (E. faecalis GC 4555; GC4555, read-out: MINIMAL INHIBITORY CONCENTRATION MIC, pre-incubated in Water): 2 µg/mL (≈ 2.65 µM) | MIC (E. faecalis GC 2267; GC2267, read-out: MINIMAL INHIBITORY CONCENTRATION MIC, pre-incubated in Human Serum): 1 µg/mL (≈ 1.32 µM) | MIC (E. faecalis GC 2267; GC2267, read-out: MINIMAL INHIBITORY CONCENTRATION MIC, pre-incubated in Mouse Serum): 0.5 µg/mL (≈ 0.662 µM) | MIC (E. faecalis GC 2267; GC2267, read-out: MINIMAL INHIBITORY CONCENTRATION MIC, pre-incubated in Water): 2 µg/mL (≈ 2.65 µM) | MIC (E. faecalis GC 2242; GC2242, read-out: MINIMAL INHIBITORY CONCENTRATION MIC, pre-incubated in Human Serum): 1 µg/mL (≈ 1.32 µM) | MIC (E. faecalis GC 2242; GC2242, read-out: MINIMAL INHIBITORY CONCENTRATION MIC, pre-incubated in Mouse Serum): 0.5 µg/mL (≈ 0.662 µM) | MIC (E. faecalis GC 2242; GC2242, read-out: MINIMAL INHIBITORY CONCENTRATION MIC, pre-incubated in Water): 1 µg/mL (≈ 1.32 µM) | MIC (S. pneumoniae* GC 4465; [1]): 0.12 µg/mL (≈ 0.159 µM) | MIC (S. pneumoniae* GC 4465; [2]): 0.12 µg/mL (≈ 0.159 µM) | MIC (S. pneumoniae* GC 4465; [3]): 0.12 µg/mL (≈ 0.159 µM) | MIC (S. pneumoniae+ GC 4465; [1]): 1 µg/mL (≈ 1.32 µM) | MIC (S. pneumoniae+ GC 4465; [2]): 1 µg/mL (≈ 1.32 µM) | MIC (S. pneumoniae+ GC 4465; [3]): 1 µg/mL (≈ 1.32 µM) | MIC (S. agalactiae GC 4564; GC4564, read-out: MINIMAL INHIBITORY CONCENTRATION MIC, pre-incubated in Human Serum): 0.25 µg/mL (≈ 0.331 µM) | MIC (S. agalactiae GC 4564; GC4564, read-out: MINIMAL INHIBITORY CONCENTRATION MIC, pre-incubated in Mouse Serum): 0.25 µg/mL (≈ 0.331 µM) | MIC (S. agalactiae GC 4564; GC4564, read-out: MINIMAL INHIBITORY CONCENTRATION MIC, pre-incubated in Water): 0.25 µg/mL (≈ 0.331 µM) | MIC (c. albicans GC 3066; Candida albicans, GC3066, read-out: MINIMAL INHIBITORY CONCENTRATION MIC): > 64 µg/mL | MINIMAL INHIBITORY CONCENTRATION MIC (c. albicans GC 3066; pre-incubated in Human Serum): >64 UG/ML | MINIMAL INHIBITORY CONCENTRATION MIC (c. albicans GC 3066; pre-incubated in Mouse Serum): >64 UG/ML
Structure (SMILES): CN(C)c1cc(NC(=O)CN(C(=O)OCOC(=O)C2CCCC2)C(C)(C)C)c(O)c2c1C[C@H]1C[C@H]3[C@H](N(C)C)C(O)=C(C(N)=O)C(=O)[C@@]3(O)C(O)=C1C2=O [Example 46, ({[(2-{[(5aR,6aS,7S,10aS)-9-(aminocarbonyl)-4,7-bis(dimethylamino)-1,8,10a,11-tetrahydroxy-10,12-dioxo-5,5a,6,6a,7,10,10a,12-octahydrotetracen-2-yl]amino}-2-oxoethyl)(tert-butyl)amino]carbonyl}oxy)methyl cyclopentanecarboxylate]
ED50 (Staph. aureus Smith; Staphylococcus aureus, in Mus musculus, po, read-out: ED50 Staph Smith SOD): 8.4 mg/kg | ED50 (Staph. aureus Smith; iv, read-out: ED50 Staph Smith SIV): 0.83 mg/kg
